Values quoted from earlier work in patent US8153109B2, “Alkylene carbonate dilution, alkylene carbonate for preparing the dilution, and aqueous reducing chemical agent” (San-Ei Kagaku Co., Ltd., priority 2006, dated 2012).

Conditions: test day 10, emulsified chemical agent, in some cases

## O=C1OCCC1S (stereo not shown) [2-mercapto-4-butyrolactone]
  percent decomposition of 2-mercapto-4-butyrolactone: about 30%
